Active and inactive are the calls of the source. No cut-off for these calls is given here.
Tests used:
HEK293 [1] = assay: Inhibition of Wnt/beta-catenin pathway in HEK293 cells assessed as decrease in Wnt3a-CM-induced beta-catenin response regulated transcription level at 1.5 to 6 uM after 15 hrs by TOPflash reporter gene assay; assay type: cell-based; conditions: Homo sapiens
HEK293 [2] = assay: Inhibition of Wnt/beta-catenin pathway in HEK293 cells assessed as downregulation of Wnt3a-CM-activated beta-catenin expression at 10 to 40 uM after 15 hrs by Western blot analysis in presence of 5-epi-nakijinone; assay type: cell-based; conditions: Homo sapiens
SW480 [3] = assay: Cytotoxicity against human SW480 cells assessed as growth inhibition after 48 hrs by Cell-Titer-Glo assay; assay type: functional, cell-based; conditions: SW480, 48 h
HCT-116 [4] = assay: Cytotoxicity against human HCT116 cells assessed as growth inhibition after 48 hrs by Cell-Titer-Glo assay; assay type: functional, cell-based; conditions: HCT-116, 48 h
HEK293 [5] = assay: Inhibition of Wnt/beta-catenin pathway in HEK293 cells assessed as decrease in Wnt3a-CM-induced beta-catenin response regulated transcription level at 10 to 40 uM after 15 hrs by TOPflash reporter gene assay; assay type: cell-based; conditions: Homo sapiens
HEK293 [6] = assay: Inhibition of Wnt/beta-catenin pathway in HEK293 cells assessed as downregulation of Wnt3a-CM-activated beta-catenin expression at 10 to 40 uM after 15 hrs by Western blot analysis; assay type: cell-based; conditions: Homo sapiens
SW480 [7] = assay: Cytotoxicity against human SW480 cells assessed as growth inhibition at >20 uM after 48 hrs by Cell-Titer-Glo assay; assay type: functional, cell-based
HCT-116 [8] = assay: Cytotoxicity against human HCT116 cells assessed as growth inhibition at >20 uM after 48 hrs by Cell-Titer-Glo assay; assay type: functional, cell-based
HEK293 [9] = assay: Inhibition of Wnt/beta-catenin pathway in HEK293 cells assessed as decrease in Wnt3a-CM-induced beta-catenin response regulated transcription level at 10 to 40 uM after 15 hrs by TOPflash reporter gene assay in presence of 5-epi-nakijinone; assay type: cell-based; conditions: Homo sapiens
HEK293 [10] = assay: Inhibition of Wnt/beta-catenin pathway in HEK293 cells assessed as downregulation of Wnt3a-CM-activated beta-catenin expression at 1.5 to 6 uM after 15 hrs by Western blot analysis; assay type: cell-based; conditions: Homo sapiens
SW480 [11] = assay: Cytotoxicity against human SW480 cells assessed as growth inhibition at >20 uM after 48 hrs by Cell-Titer-Glo assay in presence of 5-epi-nakijinone; assay type: functional, cell-based
HCT-116 [12] = assay: Cytotoxicity against human HCT116 cells assessed as growth inhibition at >20 uM after 48 hrs by Cell-Titer-Glo assay in presence of 5-epi-nakijinone; assay type: functional, cell-based

## C=C1CCC[C@H]2[C@](C)(CC3=C(O)C(=O)C=C(OCC)C3=O)[C@@H](C)CC[C@@]12C
HEK293 [1]
  inhibition: Active
HEK293 [2]
  inhibition: Active
SW480 [3]
  IC50: 3.24 µM
HCT-116 [4]
  IC50: 2950 nM

## C=C1CCC[C@H]2[C@](C)(Cc3c(O)c(OC)cc4nc(C)oc34)[C@@H](C)CC[C@@]12C
HEK293 [5]
  inhibition: Active
HEK293 [6]
  inhibition: Active
SW480 [7]
  growth inhibition (GI): Active
HCT-116 [8]
  growth inhibition (GI): Active

## C=C1CCC[C@H]2[C@](C)(CC3=C4OC(C)(C)N=C4C=C(OC)C3=O)[C@@H](C)CC[C@]12C
HEK293 [9]
  inhibition: Active
HEK293 [10]
  inhibition: Active
SW480 [11]
  growth inhibition (GI): Active
HCT-116 [12]
  growth inhibition (GI): Active

Source: ChEMBL document CHEMBL3576867, “Cytotoxic activity of rearranged drimane meroterpenoids against colon cancer cells via down-regulation of β-catenin expression” (J Nat Prod, 2015)
